{"source": "patent US10144715B2", "about": "“Piperazine derivatives as liver X receptor modulators” (priority 2014, dated 2018)", "key": {"[1]": {"target": "Gal4 DNA binding domain fused to the LBD of LXRα in HEK293 cells (Homo sapiens (Human), UniProt Q13133)", "sequence (Q13133 209-447)": "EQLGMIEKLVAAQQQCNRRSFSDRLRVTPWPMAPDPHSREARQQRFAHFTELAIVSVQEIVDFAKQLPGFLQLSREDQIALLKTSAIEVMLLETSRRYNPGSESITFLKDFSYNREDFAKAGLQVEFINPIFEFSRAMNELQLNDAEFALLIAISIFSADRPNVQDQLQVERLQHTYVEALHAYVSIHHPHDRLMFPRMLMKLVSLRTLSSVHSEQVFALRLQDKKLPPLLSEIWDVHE", "experiment": "LXR luciferase transcriptional reporter gene assay, agonist mode, LXRα", "format": "cell-based", "settings": "for EC50: read-out: Cell LXRα EC50"}, "[2]": {"target": "LXR α LBD protein (Homo sapiens (Human), UniProt Q13133)", "sequence (Q13133 209-447)": "as above", "experiment": "LXR α radioligand binding assay (SPA, competition with [3H]TO901317)", "settings": "read-out: LXRα Binding Ki"}, "[3]": {"target": "LXR β LBD protein (Homo sapiens (Human), UniProt P55055)", "sequence (P55055 222-460 limits assumed)": "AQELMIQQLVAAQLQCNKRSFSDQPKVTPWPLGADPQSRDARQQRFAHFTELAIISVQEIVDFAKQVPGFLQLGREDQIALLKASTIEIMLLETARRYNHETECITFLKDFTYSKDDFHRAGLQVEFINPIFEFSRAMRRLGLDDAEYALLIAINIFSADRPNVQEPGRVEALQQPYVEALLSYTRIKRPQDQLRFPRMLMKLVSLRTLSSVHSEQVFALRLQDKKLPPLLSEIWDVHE", "experiment": "biochemical", "format": "binding"}, "[4]": {"target": "Gal4 DNA binding domain fused to the LBD of LXRβ in HEK293 cells (Homo sapiens (Human), UniProt P55055)", "sequence (P55055 222-460 limits assumed)": "as above", "experiment": "cell-based"}, "[5]": {"settings": "agonist mode, read-out: Cell LXRβ EC50"}, "[6]": {"settings": "Biological Test Example 1, read-out: LXRβ Binding Ki"}, "[7]": {"settings": "Biological Test Example 2, agonist mode"}}, "note": "Like-named read-outs stand apart in the source and are kept apart here.", "data": [{"smiles": "CC(C)[C@@H]1CN(c2ccc(C#N)c(S(C)(=O)=O)c2)CCN1c1ncc([C@@H](C)O)c(C(F)(F)F)n1", "note": "(single isomer, unassigned) [12-4]", "values": [{"measurement": "Cell LXRα efficacy", "setting": "[1]", "value": "4457 (58) %"}, {"measurement": "EC50", "setting": "[1]", "value": 4460, "unit": "nM"}, {"measurement": "Ki", "setting": "[2]", "value": 1450, "unit": "nM"}, {"measurement": "Ki", "setting": "[3]; read-out: LXRβ Binding Ki", "value": 111, "unit": "nM"}, {"measurement": "EC50", "setting": "[4]", "value": 652, "unit": "nM"}, {"measurement": "Cell LXRβ efficacy", "setting": "[4]; agonist mode", "value": "652 (50) %"}]}, {"smiles": "CC(C)[C@@H]1CN(c2ccc(C#N)c(S(C)(=O)=O)c2)CCN1c1ncc([C@H](C)O)c(C(F)(F)F)n1", "note": "(single isomer, unassigned) [12-5]", "values": [{"measurement": "Cell LXRα efficacy", "setting": "[1]", "value": "1481 (22) %"}, {"measurement": "EC50", "setting": "[1]", "value": 1480, "unit": "nM"}, {"measurement": "Ki", "setting": "[2]", "value": 1180, "unit": "nM"}, {"measurement": "Ki", "setting": "[3]; read-out: LXRβ Binding Ki", "value": 80, "unit": "nM"}, {"measurement": "EC50", "setting": "[4]", "value": 521, "unit": "nM"}, {"measurement": "Cell LXRβ efficacy", "setting": "[4]; agonist mode", "value": "521 (40) %"}]}, {"smiles": "CC[C@H](O)c1cnc(N2CCN(c3ccc(F)c(S(C)(=O)=O)c3)C[C@H]2C(C)C)nc1C(F)(F)F", "note": "(single isomer, unassigned) [12-6]", "values": [{"measurement": "Cell LXRα efficacy", "setting": "[1]", "value": "2429 (43) %"}, {"measurement": "EC50", "setting": "[1]; agonist mode", "value": 2430, "unit": "nM"}, {"measurement": "Ki", "setting": "[2]", "value": 266, "unit": "nM"}, {"measurement": "Ki", "setting": "[3]; read-out: LXRβ Binding Ki", "value": 22, "unit": "nM"}, {"measurement": "EC50", "setting": "[4]", "value": 289, "unit": "nM"}, {"measurement": "Cell LXRβ efficacy", "setting": "[4]; agonist mode", "value": "289 (29) %"}]}, {"smiles": "C[C@](O)(c1ccc(CN2CCN(c3cccc(S(C)(=O)=O)c3)C[C@@H]2c2ccccc2)cc1)C(F)(F)F", "note": "(single isomer, unassigned) [46-28]", "values": [{"measurement": "Cell LXRα efficacy", "setting": "[1]", "value": "4974 (24) %"}, {"measurement": "EC50", "setting": "[1]", "value": 4970, "unit": "nM"}, {"measurement": "Ki", "setting": "[2]", "value": 3650, "unit": "nM"}, {"measurement": "Ki", "setting": "[3]", "value": 501, "unit": "nM"}, {"measurement": "EC50", "setting": "[4]", "value": 1890, "unit": "nM"}, {"measurement": "Cell LXRβ efficacy", "setting": "[4]; agonist mode", "value": "1885 (16) %"}]}, {"smiles": "C[C@@](O)(c1ccc(CN2CCN(c3cccc(S(C)(=O)=O)c3)C[C@H]2c2ccccc2)cc1)C(F)(F)F", "note": "(single isomer, unassigned) [46-30]", "values": [{"measurement": "Cell LXRα efficacy", "setting": "[1]", "value": "1787 (28) %"}, {"measurement": "EC50", "setting": "[1]", "value": 1790, "unit": "nM"}, {"measurement": "Ki", "setting": "[2]", "value": 1670, "unit": "nM"}, {"measurement": "Ki", "setting": "[3]", "value": 216, "unit": "nM"}, {"measurement": "EC50", "setting": "[4]", "value": 532, "unit": "nM"}, {"measurement": "Cell LXRβ efficacy", "setting": "[4]; agonist mode", "value": "532 (12) %"}]}, {"smiles": "CS(=O)(=O)c1cccc(N2CCN(C[C@H]3CC[C@@](C)(O)CC3)[C@H](c3ccccc3)C2)c1", "note": "(single isomer, unassigned) [48-6]", "values": [{"measurement": "EC50", "setting": "[1]", "value": "> 20000", "unit": "nM"}, {"measurement": "Ki", "setting": "[2]", "value": 30900, "unit": "nM"}, {"measurement": "Ki", "setting": "[3]; read-out: LXRβ Binding Ki", "value": "> 2500", "unit": "nM"}, {"measurement": "EC50", "setting": "[4]; [5]", "value": "> 20000", "unit": "nM"}]}, {"smiles": "NS(=O)(=O)c1cccc(N2CCN(C[C@H]3CC[C@H](C(F)F)CC3)[C@H](c3ccccc3)C2)c1", "note": "(single isomer, unassigned) [48-20]", "values": [{"measurement": "EC50", "setting": "[1]", "value": "> 20000", "unit": "nM"}, {"measurement": "Ki", "setting": "[2]", "value": 4670, "unit": "nM"}, {"measurement": "Ki", "setting": "[3]; read-out: LXRβ Binding Ki", "value": 1550, "unit": "nM"}, {"measurement": "Cell LXRβ efficacy", "setting": "[4]; agonist mode", "value": 6, "unit": "%"}, {"measurement": "EC50", "setting": "[4]; [5]", "value": 2270, "unit": "nM"}]}, {"smiles": "NS(=O)(=O)c1cccc(N2CCN(C[C@H]3CC[C@H](C(F)F)CC3)[C@@H](c3ccccc3)C2)c1", "note": "(single isomer, unassigned) [48-21]", "values": [{"measurement": "Cell LXRα efficacy", "setting": "[1]", "value": "2703 (20) %"}, {"measurement": "EC50", "setting": "[1]", "value": 2700, "unit": "nM"}, {"measurement": "Ki", "setting": "[2]", "value": 517, "unit": "nM"}, {"measurement": "Ki", "setting": "[3]; read-out: LXRβ Binding Ki", "value": 175, "unit": "nM"}, {"measurement": "Cell LXRβ efficacy", "setting": "[4]; agonist mode", "value": 10, "unit": "%"}, {"measurement": "EC50", "setting": "[4]; [5]", "value": 933, "unit": "nM"}]}, {"smiles": "NS(=O)(=O)c1cccc(N2CCN(C[C@H]3CC[C@@H](C(F)F)CC3)[C@H](c3ccccc3)C2)c1", "note": "(single isomer, unassigned) [48-22]", "values": [{"measurement": "Cell LXRα efficacy", "setting": "[1]", "value": "9061 (8) %"}, {"measurement": "EC50", "setting": "[1]", "value": 9060, "unit": "nM"}, {"measurement": "Ki", "setting": "[2]", "value": 1500, "unit": "nM"}, {"measurement": "Ki", "setting": "[3]; read-out: LXRβ Binding Ki", "value": 918, "unit": "nM"}, {"measurement": "Cell LXRβ efficacy", "setting": "[4]; agonist mode", "value": 8, "unit": "%"}, {"measurement": "EC50", "setting": "[4]; [5]", "value": 1190, "unit": "nM"}]}, {"smiles": "CS(=O)(=O)c1cc(N2CCN(C[C@H]3CC[C@H](C(F)(F)F)CC3)[C@H](c3ccccc3)C2)ccc1CO", "note": "(single isomer, unassigned) [48-44]", "values": [{"measurement": "Cell LXRα efficacy", "setting": "[1]", "value": "11556 (50) %"}, {"measurement": "EC50", "setting": "[1]", "value": 11600, "unit": "nM"}, {"measurement": "Ki", "setting": "[2]", "value": 10800, "unit": "nM"}, {"measurement": "Ki", "setting": "[3]; read-out: LXRβ Binding Ki", "value": 972, "unit": "nM"}, {"measurement": "Cell LXRβ efficacy", "setting": "[4]; agonist mode", "value": 34, "unit": "%"}, {"measurement": "EC50", "setting": "[4]; [5]", "value": 3100, "unit": "nM"}]}, {"smiles": "CS(=O)(=O)c1cc(N2CCN(C[C@H]3CC[C@H](C(F)(F)F)CC3)[C@@H](c3ccccc3)C2)ccc1CO", "note": "(single isomer, unassigned) [48-45]", "values": [{"measurement": "Cell LXRα efficacy", "setting": "[1]", "value": "431 (65) %"}, {"measurement": "EC50", "setting": "[1]", "value": 431, "unit": "nM"}, {"measurement": "Ki", "setting": "[2]", "value": 75, "unit": "nM"}, {"measurement": "Ki", "setting": "[3]; [6]", "value": 21, "unit": "nM"}, {"measurement": "Cell LXRβ efficacy", "setting": "[4]; [7]", "value": 33, "unit": "%"}, {"measurement": "EC50", "setting": "[4]; Biological Test Example 2, agonist mode, read-out: Cell LXRβ EC50", "value": 140, "unit": "nM"}]}, {"smiles": "CS(=O)(=O)c1cccc(N2CCN(CC3(F)CCN(CC(F)(F)F)CC3)[C@@H](c3ccccc3)C2)c1", "note": "(single isomer, unassigned) [48-53]", "values": [{"measurement": "Cell LXRα efficacy", "setting": "[1]", "value": "2169 (43) %"}, {"measurement": "EC50", "setting": "[1]; [7]", "value": 2170, "unit": "nM"}, {"measurement": "Ki", "setting": "[2]", "value": 2180, "unit": "nM"}, {"measurement": "Ki", "setting": "[3]; [6]", "value": 259, "unit": "nM"}, {"measurement": "EC50", "setting": "[4]", "value": 711, "unit": "nM"}, {"measurement": "Cell LXRβ efficacy", "setting": "[4]; [7]", "value": "711 (20) %"}]}]}
